Measured values published in patent US9388174B2, “Azole benzene derivative” (TEIJIN PHARMA LIMITED, priority 2013, dated 2016).

The compounds below were run against T1, oxidase-type xanthine oxidoreductase (from buttermilk) (Bos taurus, UniProt P80457) (assay: xanthine oxidase inhibitory activity (change of absorbance at 290 nm)). Conditions: xanthine substrate, read-out: Inhibitor Activity.
T1 construct: purchased Calbiochem Novabiochem Corp; host or cells: buttermilk (natural source)
Format: biochemical
Procedure: Test compound was dissolved in DMSO (manufactured by Sigma Co.) to prepare a 20 mM solution. The solution was adjusted to an optimal concentration and used for the testing.
This evaluation was carried out by measuring oxidase-type xanthine oxidoreductase activity. Concretely, a xanthine (manufactured by Sigma Co.) solution was prepared at 10 mM using a 20 mM sodium hydroxide solution and then mixed with 100 mM phosphate buffer to adjusted to 30 μM. 75 μL of the solution was added to each well of the 96-well plate. The test compound diluted with DMSO at 100 times of a final concentration was added to each well at 1.5 μL per well. […] Immediately after mixing, the change of absorbance at 290 nm was measured for 5 minutes. The enzyme activity of DMSO solution without test compound was used as 100% control, and the inhibitory rate of the test compounds was calculated. Fifty percent inhibitory concentration of the test compounds on the oxidase-type xanthine oxidoreductase activity was calculated by fitting to the dose-response curve.

T1 sequence (P80457 whole entry): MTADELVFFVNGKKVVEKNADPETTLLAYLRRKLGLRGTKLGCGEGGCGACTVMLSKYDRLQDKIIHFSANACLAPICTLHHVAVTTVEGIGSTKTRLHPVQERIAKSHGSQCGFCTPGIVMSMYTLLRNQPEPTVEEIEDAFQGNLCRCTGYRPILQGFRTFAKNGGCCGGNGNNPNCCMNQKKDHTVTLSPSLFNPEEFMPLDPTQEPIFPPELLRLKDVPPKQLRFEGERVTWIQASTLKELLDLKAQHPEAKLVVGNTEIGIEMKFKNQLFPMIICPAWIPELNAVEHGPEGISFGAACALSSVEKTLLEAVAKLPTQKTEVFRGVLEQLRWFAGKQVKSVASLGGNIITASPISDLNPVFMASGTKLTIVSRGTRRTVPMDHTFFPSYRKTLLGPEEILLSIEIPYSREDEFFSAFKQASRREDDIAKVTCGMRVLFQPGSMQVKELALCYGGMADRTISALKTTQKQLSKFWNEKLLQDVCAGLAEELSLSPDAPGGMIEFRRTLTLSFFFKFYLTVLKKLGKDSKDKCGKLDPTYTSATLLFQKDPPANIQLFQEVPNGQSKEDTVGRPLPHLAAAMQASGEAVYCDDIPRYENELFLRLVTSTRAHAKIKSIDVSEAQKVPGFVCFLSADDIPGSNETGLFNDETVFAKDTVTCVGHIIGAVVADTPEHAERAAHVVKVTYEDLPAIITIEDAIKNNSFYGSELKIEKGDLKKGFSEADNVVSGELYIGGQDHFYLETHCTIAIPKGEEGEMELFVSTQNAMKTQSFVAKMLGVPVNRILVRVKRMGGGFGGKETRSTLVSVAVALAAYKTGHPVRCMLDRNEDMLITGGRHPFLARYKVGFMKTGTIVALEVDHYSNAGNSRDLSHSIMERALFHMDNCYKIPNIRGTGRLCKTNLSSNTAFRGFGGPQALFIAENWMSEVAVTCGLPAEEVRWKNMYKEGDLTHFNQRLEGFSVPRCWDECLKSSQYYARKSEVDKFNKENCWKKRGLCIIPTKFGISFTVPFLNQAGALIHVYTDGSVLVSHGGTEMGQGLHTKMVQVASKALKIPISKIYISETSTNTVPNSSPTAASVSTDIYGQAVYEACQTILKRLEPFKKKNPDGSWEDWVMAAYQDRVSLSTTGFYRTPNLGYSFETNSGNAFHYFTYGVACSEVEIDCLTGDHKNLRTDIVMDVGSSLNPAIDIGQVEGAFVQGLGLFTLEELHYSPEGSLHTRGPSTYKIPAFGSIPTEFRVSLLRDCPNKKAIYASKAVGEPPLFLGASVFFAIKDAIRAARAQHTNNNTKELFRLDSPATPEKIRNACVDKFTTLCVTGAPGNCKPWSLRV

SMILES	IC50
Cc1nc(-c2ccc(OCC3CCC3)c(-n3ccnc3)c2)sc1C(=O)O [Compound No. 3, 2-[4-(cyclobutylmethoxy)-3-(1H-imidazol-1-yl)phenyl]-4-methyl-1,3-thiazole-5-carboxylic acid]	5 to 10 nM
Cc1nc(-c2ccc(OC3CCCC3)c(-n3ccnc3)c2)sc1C(=O)O [Compound No. 5, 2-[4-(cyclopentyloxy)-3-(1H-imidazol-1-yl)phenyl]-4-methyl-1,3-thiazole-5-carboxylic acid]	5 to 10 nM
Cc1nc(-c2ccc(Oc3ccccc3)c(-n3ccnc3)c2)sc1C(=O)O [Compound No. 7, 2-[3-(1H-imidazol-1-yl)-4-phenoxyphenyl]-4-methyl-1,3-thiazole-5-carboxylic acid]	> 10 nM
Cc1nc(-c2ccc(OCC(C)CO)c(-n3cnnn3)c2)sc1C(=O)O (stereo not shown) [Compound No. 29, 2-[4-(3-hydroxy-2-methylpropoxy)-3-(1H-1,2,3,4-tetrazol-1-yl)phenyl]-4-methyl-1,3-thiazole-5-carboxylic acid]	1 to 5 nM
Cc1nc(-c2ccc(OCC(C)(C)O)c(-n3cnnn3)c2)sc1C(=O)O [Compound No. 30, 2-[4-(2-hydroxy-2-methylpropoxy)-3-(1H-1,2,3,4-tetrazol-1-yl)phenyl]-4-methyl-1,3-thiazole-5-carboxylic acid]	1 to 5 nM
Cc1nc(-c2ccc(SCC(C)C)c(-n3cnnn3)c2)sc1C(=O)O [Compound No. 49, 4-methyl-2-{4-[(2-methylpropyl)sulfanyl]-3-(1H-1,2,3,4-tetrazol-1-yl)phenyl}-1,3-thiazole-5-carboxylic acid]	1 to 5 nM
CCN(CC)c1ccc(-c2nc(C)c(C(=O)O)s2)cc1-n1cnnn1 [Compound No. 52, 2-[4-(N,N-diethylamino)-3-(1H-1,2,3,4-tetrazol-1-yl)phenyl]-4-methyl-1,3-thiazole-5-carboxylic acid]	1 to 5 nM
Cc1nc(-c2ccc(OCC(C)C)c(-n3ccnc3C)c2)sc1C(=O)O [compound 9, 4-methyl-2-[3-(2-methyl-1H-imidazol-1-yl)-4-(2-methylpropoxy)phenyl]-1,3-thiazole-5-carboxylic acid]	1 to 5 nM
Cc1nc(-c2ccc(OCC(C)C)c(-n3nnnc3C)c2)sc1C(=O)O [compound 10, 4-methyl-2-[3-(5-methyl-1H-1,2,3,4-tetrazol-1-yl)-4-(2-methylpropoxy)phenyl]-1,3-thiazole-5-carboxylic acid]	5 to 10 nM
Cc1ncn(-c2cc(-c3nc(C)c(C(=O)O)s3)ccc2OCC(C)C)n1 [compound 12, 4-methyl-2-[3-(3-methyl-1H-1,2,4-triazol-1-yl)-4-(2-methylpropoxy)phenyl]-1,3-thiazole-5-carboxylic acid]	1 to 5 nM
CC(C)Oc1ccc(-c2ncc(C(=O)O)s2)cc1-n1ccnn1 [compound 20, 2-[4-(propan-2-yloxy)-3-(1H-1,2,3-triazol-1-yl)phenyl]-1,3-thiazole-5-carboxylic acid]	1 to 5 nM

Second part, the compound after the results:

IC50	SMILES
1 to 5 nM	Cc1nc(-c2ccc(OCC(C)C)c(-n3ccnc3)c2)sc1C(=O)O [Compound No. 1, 2-[3-(1H-imidazol-1-yl)-4-(2-methylpropoxy)phenyl]-4-methyl-1,3-thiazole-5-carboxylic acid]
5 to 10 nM	Cc1nc(-c2ccc(OCC(C)(C)C)c(-n3ccnc3)c2)sc1C(=O)O [Compound No. 2, 2-[4-(2,2-dimethylpropoxy)-3-(1H-imidazol-1-yl)phenyl]-4-methyl-1,3-thiazole-5-carboxylic acid]
5 to 10 nM	Cc1nc(-c2ccc(OCC3CCCC3)c(-n3ccnc3)c2)sc1C(=O)O [Compound No. 4, 2-[4-(cyclopentylmethoxy)-3-(1H-imidazol-1-yl)phenyl]-4-methyl-1,3-thiazole-5-carboxylic acid]
> 10 nM	Cc1nc(-c2ccc(Oc3ccccc3F)c(-n3ccnc3)c2)sc1C(=O)O [Compound No. 8, 2-[4-(2-fluorophenoxy)-3-(1H-imidazol-1-yl)phenyl]-4-methyl-1,3-thiazole-5-carboxylic acid]
> 10 nM	Cc1nc(-c2ccc(Oc3ccccc3)c(-n3cncn3)c2)sc1C(=O)O [Compound No. 15]
1 to 5 nM	Cc1nc(-c2ccc(OC(C)C)c(-n3ccnn3)c2)sc1C(=O)O [Compound No. 16, 4-methyl-2-[4-(propan-2-yloxy)-3-(1H-1,2,3-triazol-1-yl)phenyl]-1,3-thiazole-5-carboxylic acid]
1 to 5 nM	Cc1nc(-c2ccc(OC(C)C)c(-n3cnnn3)c2)sc1C(=O)O [Compound No. 24, 4-methyl-2-[4-(propan-2-yloxy)-3-(1H-1,2,3,4-tetrazole-1-yl)phenyl]-1,3-thiazole-5-carboxylic acid]
1 to 5 nM	Cc1nc(-c2ccc(Oc3ccccc3)c(-n3cnnn3)c2)sc1C(=O)O [Compound No. 33, 4-methyl-2-[4-phenoxy-3-(1H-1,2,3,4-tetrazol-1-yl)phenyl]-1,3 thiazole-5-carboxylic acid]
1 to 5 nM	Cc1nc(-c2ccc(N3CCCC3)c(-n3cnnn3)c2)sc1C(=O)O [Compound No. 53, 4-methyl-2-[4-(pyrrolidin-1-yl)-3-(1H-1,2,3,4-tetrazol-1-yl)phenyl]-1,3-thiazole 5-carboxylic acid]
5 to 10 nM	Cc1nc(-c2ccc(OC3CCCCC3)c(-n3ccnc3)c2)sc1C(=O)O [compound 6, 2-[4-(cyclohexyloxy)-3-[1H-imidazol-1-yl)phenyl]-4-methyl-1,3-thiazole-5-carboxylic acid]
1 to 5 nM	Cc1nc(-c2ccc(OCC(C)C)c(-n3cnc4ccccc43)c2)sc1C(=O)O [compound 11, 2-[3-(1H-1,3-benzodiazol-1-yl)-4-(2-methylpropoxy)phenyl]-4-methyl-1,3-thiazole-5-carboxylic acid]
1 to 5 nM	Cc1nc(-c2ccc(OCC(C)C)c(-n3cncn3)c2)sc1C(=O)O [compound 13, 4-methyl-2-[4-(2-methylpropoxy)-3-(1H-1,2,4-triazol-1-yl)phenyl]-1,3-thiazole-5-carboxylic acid]
1 to 5 nM	Cc1nc(-c2ccc(OCC(C)C)c(-n3ncnc3C)c2)sc1C(=O)O [compound 14, 4-methyl-2-[3-(5-methyl-1H-1,2,4-triazol-1-yl)-4-(2-methylpropoxy)phenyl]-1,3-thiazole-5-carboxylic acid]
1 to 5 nM	Cc1nc(-c2ccc(OCC(C)C)c(-n3ccnn3)c2)sc1C(=O)O [compound 17, 4-methyl-2-[4-(2-methylpropoxy)-3-(1H-1,2,3-triazol-1-yl)phenyl]-1,3-thiazole-5-carboxylic acid]
1 to 5 nM	Cc1nc(-c2ccc(OCC(C)(C)C)c(-n3ccnn3)c2)sc1C(=O)O [compound 18, 2-[4-(2,2-dimethylpropoxy)-3-(1H-1,2,3-triazol-1-yl)phenyl]-4-methyl-1,3-thiazole-5-carboxylic acid]
1 to 5 nM	Cc1nc(-c2ccc(OCC3CCC3)c(-n3ccnn3)c2)sc1C(=O)O [compound 19, 2-[4-(cyclobutylmethoxy)-3-(1H-1,2,3-triazol-1-yl)phenyl]-4-methyl-1,3-thiazole-5-carboxylic acid]
1 to 5 nM	CC(C)COc1ccc(-c2ncc(C(=O)O)s2)cc1-n1ccnn1 [compound 21, 2-[4-(2-methylpropoxy)-3-(1H-1,2,3-triazol-1-yl)phenyl]-1,3-thiazole-5-carboxylic acid]
